Laboratory results as given in patent publication US20010044425A1, “Compositions useful in the treatment of diseases of connective tissues” (priority 2000, published 2001).
“Also recorded” adds a separate entry of the source. Read-outs that look alike come from different tables or passages of the source.

System: cartilage precursor cells from the developing limb bud of normal chick embryos
Assay: Cartilage development in micromass cultures of cartilage precursor cells
Format: cell-based
[1] = varying doses of the salt added to basic culture medium (about 0.6 μg/ml ferrous sulphate, about 75 μg/ml ascorbic acid) vs control group without addition, FIG. 2, FIG. 4

O=C1O[C@H]([C@@H](O)CO)C(O)=C1O [ascorbic acid]
cartilage development (amount of cartilage produced) (ascorbic acid 75 or 150 μg/ml added vs control with no ascorbic acid added, FIG. 1): significantly enhances cartilage development in a dose-dependent manner

O=S(=O)([O-])[O-].[Co+2] [cobalt (II) sulphate]
cartilage development (amount of cartilage produced): No statistically significant increase in cartilage development; also recorded: significantly reduce the amount of cartilage produced in a dose-dependent manner

O=S(=O)([O-])[O-].O=S(=O)([O-])[O-].O=S(=O)([O-])[O-].[Fe+3].[Fe+3] [ferric sulphate]
cartilage development (amount of cartilage produced): no statistically significant difference

O=C([O-])/C=C/C(=O)[O-].[Fe+2] [ferrous fumarate]
cartilage development (amount of cartilage produced) [1]: significantly enhanced cartilage production

O=S(=O)([O-])[O-].[Fe+2] [ferrous sulphate]
cartilage development (amount of cartilage produced): significantly enhanced cartilage development in a dose-dependent manner | cartilage production when combined with ascorbic acid: significantly enhanced the cartilage production

O=S(=O)([O-])[O-].[K+].[K+] [potassium sulphate]
cartilage development (amount of cartilage produced): No statistically significant increase in cartilage development

O=S(=O)([O-])[O-].[Zn+2] [zinc sulphate]
cartilage development (amount of cartilage produced): no statistically significant increase in cartilage development

ferrous ascorbate
cartilage development (amount of cartilage produced) [1]: significantly enhanced cartilage production
